# Results taken from US20250387410A1, “TREATMENT OF ANTI-VEGF REFRACTORY OPHTHALMIC RETINAL EYE CONDITIONS” (Eye Co Pty Ltd., priority 2022, published 2025).
# “Also recorded” adds a separate entry of the source.
# Assays:
# [1] = system: Il-1b-stimulated MIO-M1 cells; assay: Co-incubation with selective receptor antagonists in Il-1b-stimulated MIO-M1 cells; type: cell-based, human; settings: co-incubation with FA + IL-1β, compared to Il1b and FA alone
# Experimental: FIG. 3 Contribution of glucocorticoid and mineralocorticoid receptor signalling to the anti-inflammatory effect of FA in vitro.
# IL-1β and TNF-α were administered to MIO-M1 cells to initiate an inflammatory response in order to test the anti-inflammatory properties of the selected corticosteroids. MIO-M1 cells were grown to a cell density of 50,000 cells per well in a 24 well plate using growth media and foetal bovine serum as described (Section 2.1.1). MIO-M1 cells were challenged with either 1 ng/μl of IL-1β or TNF-α (R&D Systems, MN, USA). Experimental wells were treated with either 1 μg/μl FA, TA or Dexamethasone. Twelve hours post addition, growth medium was removed from each well and replaced with 860 μl of TRIzol (Thermo Fisher Scientific, MA, USA), agitated approximately 20 times and then placed in a clean 1.5 ml Eppendorf tube to extract ribonucleic acid (RNA).
# Following purification of RNA, cDNA was synthesized using the Bioline Tetro kit (Bioline, Australia) as per the manufacturer's instructions. Quantitative Real Time Polymerase Chain Reaction (QRT-PCR) was undertaken to profile gene expression changes in animal and cell culture samples. TaqMan hydrolysis probes (Applied Biosystems, USA) and Gene Expression Master Mix (Applied Biosystems, USA) were used. A clear 384 well plate (Applied Biosystems, USA) was used with each biological sample plated in duplicate. A reaction mixture per sample was set up and included 0.5 μl cDNA, 4 μl Rnase Free Water, 5 μl Gene Expression Master Mix and 0.5 μl Taqman Primer Probe (Thermo Fisher Scientific), as listed in Table 2.5. The amplification of each sample was undertaken using a QuantStudio 12K Flex QRT-PCR machine (Applied Biosystems, USA). GAPDH was used as the reference gene using the comparative cycle threshold (Ct) method (ΔΔCt), as it is known not to change expression following retinal photo-oxidative damage. Data was analysed using the QuantStudio 12K Flex Software (Applied Biosystems, USA).
# MIO-M1 cells = assay: MTT assay, cell viability of MIO-M1 cells; type: cell-based, human
# Description: (§1) The immortalised retinal cells used were as follows: MIO-M1 cells (Muller cell-derived; Müller 1 Moorefields, Institute of Ophthalmology, Dr A. Limb, Institute of Ophthalmology, University College, UK); ARPE19 (RPE-derived; ATCC CRL-2302, American Tissue Culture Collection, VA, USA); and 661W cells (photoreceptor-like derived; kindly gifted by Dr Muayyad R. Al-Ubaidi, Department of Cell Biology, University of Oklahoma Health Sciences Centre, Oklahoma City, OK, USA). Cells were authenticated and validated from Cell Bank Australia.
# (§2) The immortalised retinal cell lines MIO-M1, 661W and ARPE19 were used to undertake the MTT assay to assess cell metabolic activity, based on the cell's availability of NAPDH. Treatments included exposure to one of FA (10-0.01 μg/μl, provided by Professor Ben Boyd, Monash University, Australia), TA (10-0.01 μg/p, Honeywell, USA) and Dexamethasone (10-0.0001 μg/μl, Sigma-Aldrich, MO, USA). All corticosteroids used in vitro were dissolved in 20% dimethyl sulfoxide (DMSO) (Sigma-Aldrich, MO, USA) and ultrapure endotoxin 0.1M PBS (Thermo Fisher Scientific, MA, USA). At the 12-hour time point following addition of the corticosteroid, 10p of MTT reagent (Roche, Switzerland) was added to each well. To protect against light, plates were wrapped in foil and stored in the dark at 37° C. for 4 hours at 5.0% CO2. Cells were monitored using a bright field Zeiss Axiovert 200 inverted microscope (Carl Zeiss Meditec, Dublin, CA. USA) for formation of insoluble purple formazan precipitate crystals in viable cells. Subsequently 100p of MTT solubilisation solution was added and once again incubated in darkness at 37° C., 5.0% CO2 for 24 hours. Quantification of the MTT assay was performed by measuring the absorbance at 570 nm using Tecan Infinite® 200 PRO (Tecan, Mannedorf, Switzerland).
# ARPE19 cells = assay: MTT assay, cell viability of ARPE19 cells; type: cell-based, human
# Description: as §1, §2
# 661W cells = assay: MTT assay, cell viability of 661W cells; type: cell-based, human
# Description: as §1, §2
# [2] = system: C57BL/6J mice, photo-oxidative damage (PD); assay: Photo-oxidative damage (PD) model of retinal degeneration, intravitreal injection; type: in vivo, mouse
# Description: All experiments conducted were in accordance with the ARVO Statement for Use of Animals in Ophthalmic and Vision Research, and with approval from the ANU Animal Experimentation Ethics Committee (AEEC, protocol #A2014/56). C57BL/6J mice aged 60 post-natal days were used in this study. Animals were born, reared and held under dim light conditions (5 lux) prior to photo-oxidative damage.
# In vivo cross-sectional and fundus images of the mouse retina were acquired using Optical Coherence Tomography (OCT).
# Intravitreal injections were performed on C57BL/6J mice aged 60 post-natal days. Treatments included exposure to FA or TA dissolved in Suspension (comprised of 0.5% w/v carboxymethyl cellulose and 0.4% v/v Tween 80). The final concentration of drug in the vitreous chamber is estimated to be as 1 mg/ml.
# Age-matched C57BL/6J mice (60 post-natal days) were exposed to continuous 100K lux white LED light for 5 days with access to food and water ad libitum. During this time, 1% atropine sulphate (Minims 1% atropine sulphate eye drops; Bausch and Lomb, USA) was administered to both eyes twice daily to dilate the pupils. Animals were subsequently euthanised with carbon dioxide (CO2).
# Electroretinography (ERG) was used to assess the retinal function response of rodents to full-field flash stimuli under scotopic conditions. Dim-reared control and photo-oxidative damaged animals were used, using known methods.
# Animals were dark-adapted overnight before the commencement of ERG experiments. Animals were anaesthetised as previously described, and all retinal recordings were undertaken in a dark room with minimal red light source.
# Terminal deoxynucleotidyl transferase (Tdt) dUTP nick end labelling (TUNEL) is an established technique used to detect apoptotic and necrotic cells.
# The retina was evenly divided into 8 quadrants. Each quadrant was viewed using a confocal microscope (LSM 5, Zeiss, Germany) and TUNEL^+ and IBA1^+ cells were identified and counted. Data were graphed and analysed using Prism 6 software (GraphPad Software, CA, USA).
# [3] = 10 ug/uL, compared to DMSO-only group
# [4] = 10-0.01 μg/μl, 12 h, compared to DMSO-only group
smiles,measurement,setting,value
C[C@]12CC[C@@H]3c4ccc(O)cc4C[C@@H](CCCCCCCCC[S+]([O-])CCCC(F)(F)C(F)(F)F)[C@H]3[C@@H]1CC[C@@H]2O (some centres unmarked) [ICI182780],"effect of receptor antagonist on FA-mediated suppression of Ccl2, Il-6, and Il-8",[1],did not alter
N#Cc1ccc([C@H]2CCCC[C@H]2O)cc1C(F)(F)F [PF998425],"effect of receptor antagonist on FA-mediated suppression of Ccl2, Il-6, and Il-8",[1],did not alter
"CC#C[C@]1(O)CC[C@H]2[C@@H]3CCC4=CC(=O)CCC4=C3[C@@H](c3ccc(N(C)C)cc3)C[C@@]21C [RU486, Mifepristone]","effect of receptor antagonist on FA-mediated suppression of Ccl2, Il-6, and Il-8",[1],negated; also recorded: completely abrogate
CCC[C@@H]1CC2=CC(=O)CC[C@]2(C)[C@H]2CC[C@@]3(C)[C@@H](CC[C@@]3(O)CCC(=O)[O-])[C@H]12.[K+] [RU28318],"effect of receptor antagonist on FA-mediated suppression of Ccl2, Il-6, and Il-8",[1],did not significantly alter
"CC1(C)O[C@@H]2C[C@H]3[C@@H]4CCC5=CC(=O)C=C[C@]5(C)[C@@]4(F)[C@@H](O)C[C@]3(C)[C@]2(C(=O)CO)O1 [TA, triamcinolone acetonide]",viability of MIO-M1 cells at 1 μg/μl,MIO-M1 cells; 1 μg/μl,does not significantly alter cell viability
same,viability of MIO-M1 cells at the highest concentration,MIO-M1 cells; [3],slight reduction
same,viability of MIO-M1 cells (MTT assay),MIO-M1 cells; [4],do not induce toxicity; also recorded: did not have significant effect
same,viability of ARPE19 cells at 1 μg/μl,ARPE19 cells; 1 μg/μl,does not significantly alter cell viability
same,viability of ARPE-19 cells (MTT assay),ARPE19 cells; [4],do not induce toxicity; also recorded: did not have significant effect
same,viability of 661W cells at 1 μg/μl,661W cells; 1 μg/μl,does not significantly alter cell viability
same,viability of 661W cells at the highest concentration,661W cells; [3],slight reduction
same,viability of 661W cells (MTT assay),661W cells; [4],do not induce toxicity; also recorded: did not have significant effect
same,a-wave and b-wave ERG responses,"[2]; 5 days PD, intravitreal, scotopic, versus controls",indistinguishable from PD controls/untreated animals
same,photoreceptor survival in PD,"[2]; intravitreal injection, mice",no significant effect
